Results from PubChem BioAssay (NCI).
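In this assay, cells in 96-well plates receive the compound at five concentrations for 48 hours. Endpoints are linearly interpolated between the surrounding concentrations. The concentration for 50% growth inhibition is given as GI50. At the TGI there is no net growth.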

Columns and labels:
Assay in all cases: NCI tumour cell line growth inhibition, 48 h
ACHN renal = test system: ACHN renal
CCRF-CEM leukemia = test system: CCRF-CEM leukemia
DU-145 prostate = test system: DU-145 prostate
HCC-2998 colon = test system: HCC-2998 colon
HT29 colon = test system: HT29 colon
LOX IMVI melanoma = test system: LOX IMVI melanoma
MDA-MB-435 = test system: MDA-MB-435
OVCAR-4 ovarian = test system: OVCAR-4 ovarian
SF-295 CNS = test system: SF-295 CNS
SK-MEL-5 melanoma = test system: SK-MEL-5 melanoma

Compound: Cc1ccc(C(=O)CN(/C=C/C(=O)C(F)(F)F)c2ccc(S(N)(=O)=O)cc2)cc1
- GI50 (ACHN renal): > 100 µM
- TGI (ACHN renal): > 100 µM
- GI50 (CCRF-CEM leukemia): 30.3 µM
- TGI (CCRF-CEM leukemia): > 100 µM
- GI50 (DU-145 prostate): > 100 µM
- TGI (DU-145 prostate): > 100 µM
- GI50 (HCC-2998 colon): > 100 µM
- TGI (HCC-2998 colon): > 100 µM
- GI50 (HT29 colon): > 100 µM
- TGI (HT29 colon): > 100 µM
- GI50 (LOX IMVI melanoma): 76 µM
- TGI (LOX IMVI melanoma): > 100 µM
- GI50 (MDA-MB-435): > 100 µM
- TGI (MDA-MB-435): > 100 µM
- GI50 (OVCAR-4 ovarian): > 100 µM
- TGI (OVCAR-4 ovarian): > 100 µM
- GI50 (SF-295 CNS): 43.8 µM
- TGI (SF-295 CNS): > 100 µM
- GI50 (SK-MEL-5 melanoma): 49.8 µM
- TGI (SK-MEL-5 melanoma): > 100 µM

Compound: COc1cc2c3c(n(CCCNC(=O)OCC4c5ccccc5-c5ccccc54)c(=O)c2cc1OC)-c1cc2c(cc1/C3=C\CCNC(=O)OCC1c3ccccc3-c3ccccc31)OCO2
- GI50 (ACHN renal): > 11.8 µM
- TGI (ACHN renal): > 35 µM
- GI50 (CCRF-CEM leukemia): 1.42 µM
- TGI (CCRF-CEM leukemia): > 50 µM
- GI50 (DU-145 prostate): > 42.2 µM
- TGI (DU-145 prostate): > 50 µM
- GI50 (HCC-2998 colon): > 50 µM
- TGI (HCC-2998 colon): > 50 µM
- GI50 (HT29 colon): 21.5 µM
- TGI (HT29 colon): > 50 µM
- GI50 (LOX IMVI melanoma): > 22.5 µM
- TGI (LOX IMVI melanoma): > 50 µM
- GI50 (MDA-MB-435): > 28.9 µM
- TGI (MDA-MB-435): 49 µM
- GI50 (OVCAR-4 ovarian): > 50 µM
- TGI (OVCAR-4 ovarian): > 50 µM
- GI50 (SF-295 CNS): > 23.6 µM
- TGI (SF-295 CNS): > 50 µM
- GI50 (SK-MEL-5 melanoma): > 50 µM
- TGI (SK-MEL-5 melanoma): > 50 µM

Compound: C=C1C(=O)O[C@@H]2/C=C(\C)CC/C=C(/COC(C)=O)C[C@@H](OC(C)=O)[C@@H]12
- TGI (ACHN renal): 17 µM
- TGI (CCRF-CEM leukemia): 14.3 µM
- TGI (DU-145 prostate): 19.2 µM
- TGI (HCC-2998 colon): 30.2 µM
- TGI (HT29 colon): > 40.9 µM
- TGI (LOX IMVI melanoma): 13.1 µM
- TGI (MDA-MB-435): 54.4 µM
- TGI (OVCAR-4 ovarian): 45.1 µM
- TGI (SF-295 CNS): > 100 µM
- TGI (SK-MEL-5 melanoma): 25.7 µM

Compound: COC(=O)C1=CNC=C(C(=O)OC)C1C1=CC(=O)C(C)=CC1=O
- GI50 (ACHN renal): 2.52 µM
- TGI (ACHN renal): 8.18 µM
- GI50 (CCRF-CEM leukemia): 4.3 µM
- GI50 (DU-145 prostate): 16 µM
- TGI (DU-145 prostate): 30.3 µM
- GI50 (HCC-2998 colon): 14.9 µM
- TGI (HCC-2998 colon): 28.1 µM
- GI50 (HT29 colon): 29.9 µM
- TGI (HT29 colon): > 100 µM
- GI50 (LOX IMVI melanoma): 14 µM
- TGI (LOX IMVI melanoma): 28.6 µM
- GI50 (MDA-MB-435): 15.9 µM
- TGI (MDA-MB-435): 29.5 µM
- GI50 (OVCAR-4 ovarian): 20.7 µM
- TGI (OVCAR-4 ovarian): 61.7 µM
- GI50 (SF-295 CNS): 19.7 µM
- TGI (SF-295 CNS): 40.1 µM
- GI50 (SK-MEL-5 melanoma): 20.7 µM
- TGI (SK-MEL-5 melanoma): 43.7 µM

Compound: COC1=CC(=O)c2nc(-c3cccc(C)n3)[nH]c2C1=O
- GI50 (ACHN renal): 25.1 µM
- TGI (ACHN renal): 70.3 µM
- GI50 (CCRF-CEM leukemia): 61.8 µM
- TGI (CCRF-CEM leukemia): > 100 µM
- GI50 (DU-145 prostate): 25.6 µM
- TGI (DU-145 prostate): 73.3 µM
- GI50 (HCC-2998 colon): 35.6 µM
- TGI (HCC-2998 colon): > 100 µM
- GI50 (HT29 colon): 33.4 µM
- TGI (HT29 colon): > 100 µM
- GI50 (LOX IMVI melanoma): 49.6 µM
- TGI (LOX IMVI melanoma): > 100 µM
- GI50 (MDA-MB-435): 35.6 µM
- TGI (MDA-MB-435): > 100 µM
- GI50 (OVCAR-4 ovarian): 20.4 µM
- TGI (OVCAR-4 ovarian): 50.3 µM
- GI50 (SF-295 CNS): 28.4 µM
- TGI (SF-295 CNS): 85.2 µM
- GI50 (SK-MEL-5 melanoma): 15.9 µM
- TGI (SK-MEL-5 melanoma): 36.4 µM

Compound: NS(=O)(=O)c1ccc(N=Nc2c(O)[nH]c3ccc(-c4cnco4)cc23)cc1
- GI50 (ACHN renal): 17.7 µM
- TGI (ACHN renal): > 25 µM
- GI50 (CCRF-CEM leukemia): 14.4 µM
- TGI (CCRF-CEM leukemia): > 25 µM
- GI50 (DU-145 prostate): 24.4 µM
- TGI (DU-145 prostate): > 25 µM
- GI50 (HCC-2998 colon): > 25 µM
- TGI (HCC-2998 colon): > 25 µM
- GI50 (HT29 colon): > 25 µM
- TGI (HT29 colon): > 25 µM
- GI50 (LOX IMVI melanoma): 22.8 µM
- TGI (LOX IMVI melanoma): > 25 µM
- GI50 (MDA-MB-435): > 25 µM
- TGI (MDA-MB-435): > 25 µM
- GI50 (OVCAR-4 ovarian): > 25 µM
- TGI (OVCAR-4 ovarian): > 25 µM
- GI50 (SF-295 CNS): > 25 µM
- TGI (SF-295 CNS): > 25 µM
- GI50 (SK-MEL-5 melanoma): > 25 µM
- TGI (SK-MEL-5 melanoma): > 25 µM

Compound: CN1C(=O)c2cccc3cc([N+](=O)[O-])cc(c23)C1=O
- TGI (ACHN renal): > 10 µM
- TGI (CCRF-CEM leukemia): > 10 µM
- TGI (DU-145 prostate): > 10 µM
- TGI (HCC-2998 colon): > 10 µM
- TGI (HT29 colon): > 10 µM
- TGI (LOX IMVI melanoma): > 10 µM
- TGI (MDA-MB-435): > 10 µM
- TGI (OVCAR-4 ovarian): > 10 µM
- TGI (SF-295 CNS): > 10 µM
- TGI (SK-MEL-5 melanoma): > 10 µM

Compound: COc1ccccc1CNCCCN1C(=O)c2ccc3c4c(ccc(c24)C1=O)C(=O)N(CCCOCCCCOCCCN)C3=O
- GI50 (ACHN renal): 1.21 µM
- TGI (ACHN renal): 2.57 µM
- GI50 (CCRF-CEM leukemia): 0.559 µM
- TGI (CCRF-CEM leukemia): 3.54 µM
- GI50 (DU-145 prostate): 1.78 µM
- TGI (DU-145 prostate): 3.44 µM
- GI50 (HCC-2998 colon): 0.625 µM
- TGI (HCC-2998 colon): 2.02 µM
- GI50 (HT29 colon): 0.402 µM
- TGI (HT29 colon): 1.29 µM
- GI50 (LOX IMVI melanoma): 1.26 µM
- TGI (LOX IMVI melanoma): 3.01 µM
- GI50 (MDA-MB-435): 0.2 µM
- TGI (MDA-MB-435): 0.429 µM
- GI50 (OVCAR-4 ovarian): 0.193 µM
- TGI (OVCAR-4 ovarian): 0.54 µM
- GI50 (SF-295 CNS): 1.42 µM
- TGI (SF-295 CNS): 3.43 µM
- GI50 (SK-MEL-5 melanoma): 0.288 µM
- TGI (SK-MEL-5 melanoma): 1.18 µM

Compound: O=C(O)C1OC(n2cc(F)c(=O)[nH]c2=O)CC1O (stereo not drawn)
- TGI (ACHN renal): > 59.1 µM
- TGI (CCRF-CEM leukemia): > 100 µM
- TGI (DU-145 prostate): > 100 µM
- TGI (HCC-2998 colon): > 77.4 µM
- TGI (HT29 colon): > 100 µM
- TGI (LOX IMVI melanoma): > 100 µM
- TGI (MDA-MB-435): > 100 µM
- TGI (OVCAR-4 ovarian): > 100 µM
- TGI (SF-295 CNS): > 100 µM
- TGI (SK-MEL-5 melanoma): > 100 µM

Compound: O=C(N/N=C/c1ccc(Cl)cc1)c1ccc(C(F)(F)F)nc1Nc1cccc(C(F)(F)F)c1
- GI50 (ACHN renal): 2.73 µM
- TGI (ACHN renal): 8.77 µM
- GI50 (CCRF-CEM leukemia): 0.344 µM
- TGI (CCRF-CEM leukemia): 3.62 µM
- GI50 (DU-145 prostate): 2.33 µM
- TGI (DU-145 prostate): 10.8 µM
- GI50 (HCC-2998 colon): 4.3 µM
- TGI (HCC-2998 colon): 17.3 µM
- GI50 (HT29 colon): 1.44 µM
- TGI (HT29 colon): 11.7 µM
- GI50 (LOX IMVI melanoma): 1.3 µM
- TGI (LOX IMVI melanoma): 8 µM
- GI50 (MDA-MB-435): 3.17 µM
- TGI (MDA-MB-435): 20.1 µM
- GI50 (OVCAR-4 ovarian): 0.736 µM
- TGI (OVCAR-4 ovarian): 15.2 µM
- GI50 (SF-295 CNS): 1.17 µM
- TGI (SF-295 CNS): 4.62 µM
- GI50 (SK-MEL-5 melanoma): 1.46 µM
- TGI (SK-MEL-5 melanoma): 3.55 µM

Compound: O=C(NC1=CC(=O)c2ccccc2C1=O)c1ccccc1
- GI50 (ACHN renal): 1.01 µM
- TGI (ACHN renal): 2.27 µM
- GI50 (CCRF-CEM leukemia): 0.872 µM
- GI50 (DU-145 prostate): 1.71 µM
- TGI (DU-145 prostate): 3.46 µM
- GI50 (HCC-2998 colon): 1.27 µM
- TGI (HCC-2998 colon): 14.3 µM
- GI50 (HT29 colon): 2.33 µM
- TGI (HT29 colon): 4.9 µM
- GI50 (LOX IMVI melanoma): 1.08 µM
- TGI (LOX IMVI melanoma): 2.63 µM
- GI50 (MDA-MB-435): 0.94 µM
- TGI (MDA-MB-435): 2.29 µM
- GI50 (OVCAR-4 ovarian): 1.04 µM
- TGI (OVCAR-4 ovarian): 2.26 µM
- GI50 (SF-295 CNS): 2 µM
- TGI (SF-295 CNS): 7.73 µM
- GI50 (SK-MEL-5 melanoma): 0.399 µM
- TGI (SK-MEL-5 melanoma): 1.48 µM

Compound: COC(=O)[C@H](C)NC(=O)NC(=O)NC(=O)CI
- GI50 (ACHN renal): 6.76 µM
- TGI (ACHN renal): 21 µM
- GI50 (CCRF-CEM leukemia): 2.03 µM
- TGI (CCRF-CEM leukemia): 4.44 µM
- GI50 (DU-145 prostate): 15.4 µM
- TGI (DU-145 prostate): 29.2 µM
- GI50 (HCC-2998 colon): 17.3 µM
- TGI (HCC-2998 colon): 33.6 µM
- GI50 (HT29 colon): 18.1 µM
- TGI (HT29 colon): 36.4 µM
- GI50 (LOX IMVI melanoma): 2.27 µM
- TGI (LOX IMVI melanoma): 5.97 µM
- GI50 (MDA-MB-435): 10.3 µM
- TGI (MDA-MB-435): 23.5 µM
- GI50 (OVCAR-4 ovarian): 11.6 µM
- TGI (OVCAR-4 ovarian): 24.4 µM
- GI50 (SF-295 CNS): 17.4 µM
- TGI (SF-295 CNS): 33.1 µM
- GI50 (SK-MEL-5 melanoma): 17.6 µM
- TGI (SK-MEL-5 melanoma): 31.8 µM

Compound: N#C/C(=C1C=C(Br)/C(=N\O)C=C\1Cl)c1cccc2ccccc12
- TGI (ACHN renal): 22.9 µM
- TGI (CCRF-CEM leukemia): 13.9 µM
- TGI (DU-145 prostate): 12.6 µM
- TGI (HCC-2998 colon): 17.7 µM
- TGI (HT29 colon): 6.79 µM
- TGI (LOX IMVI melanoma): > 100 µM
- TGI (MDA-MB-435): 10.4 µM
- TGI (OVCAR-4 ovarian): 7.6 µM
- TGI (SF-295 CNS): 12.3 µM
- TGI (SK-MEL-5 melanoma): 13.4 µM
